Laboratory results published in ChEMBL document CHEMBL3045105, “Synthesis and hypoglycemic activity evaluation of rhein amide derivatives” (Med Chem Res, 2013).

Tests used:
HepG2 [1] = assay: Hypoglycemic activity in Homo sapiens (human) HepG2 cells assessed as glucose consumption at 10 mg/l after 24 hr by glucose enzymatic assay (reference value: 1.972 +/-0.071 mmol/l); assay type: functional
HepG2 [2] = assay: Hypoglycemic activity in Homo sapiens (human) HepG2 cells assessed as glucose consumption at 1 mg/l after 24 hr by glucose enzymatic assay (reference value: 1.972 +/-0.071 mmol/l); assay type: functional
HepG2 [3] = assay: Ratio of glucose consumption to cytotoxic OD490 absorbance for Homo sapiens (human) HepG2 cells (reference value: 3.438 +/-0.139 no unit)
HepG2 [4] = assay: Cytotoxicity against Homo sapiens (human) HepG2 cells assessed as absorbance at 490 nm by MTT assay (reference value: 0.574 +/-0.019 no unit); assay type: cell-based; settings: hepg2, 10 mg/L

CC(=O)Oc1cccc2c1C(=O)c1c(OC(C)=O)cc(C(=O)NC3CCCC3)cc1C2=O
Activity (HepG2 [1]): 2.256 mmol/L | Activity (HepG2 [2]): 2.151 mmol/L | Ratio (HepG2 [3]): 3.916 | OD (HepG2 [4]): 0.577

CC(=O)Oc1cccc2c1C(=O)c1c(OC(C)=O)cc(C(=O)OCc3ccc([N+](=O)[O-])cc3)cc1C2=O
Activity (HepG2 [1]): 2.268 mmol/L | Activity (HepG2 [2]): 2.198 mmol/L | Ratio (HepG2 [3]): 3.958 | OD (HepG2 [4]): 0.573

CC(C)(C)[Si](C)(C)Oc1cccc2c1C(=O)c1c(O[Si](C)(C)C(C)(C)C)cc(C(=O)NC3CCCC3)cc1C2=O
Activity (HepG2 [1]): 2.578 mmol/L | Activity (HepG2 [2]): 2.369 mmol/L | Ratio (HepG2 [3]): 4.563 | OD (HepG2 [4]): 0.565

CC(C)(C)[Si](C)(C)Oc1cccc2c1C(=O)c1c(O[Si](C)(C)C(C)(C)C)cc(C(=O)OCc3ccc([N+](=O)[O-])cc3)cc1C2=O
Activity (HepG2 [1]): 2.529 mmol/L | Activity (HepG2 [2]): 2.576 mmol/L | Ratio (HepG2 [3]): 4.499 | OD (HepG2 [4]): 0.563

CN(C)C(=O)c1cc(O)c2c(c1)C(=O)c1cccc(O)c1C2=O
Activity (HepG2 [1]): 2.485 mmol/L | Activity (HepG2 [2]): 2.444 mmol/L | Ratio (HepG2 [3]): 4.449 | OD (HepG2 [4]): 0.56

O=C1c2cccc(O)c2C(=O)c2c(O)cc(C(=O)N3CCCC3)cc21
Activity (HepG2 [1]): 2.315 mmol/L | Activity (HepG2 [2]): 2.379 mmol/L | Ratio (HepG2 [3]): 4.116 | OD (HepG2 [4]): 0.565

CC(=O)Oc1cccc2c1C(=O)c1c(OC(C)=O)cc(C(=O)N3CCCC3)cc1C2=O
Activity (HepG2 [1]): 2.541 mmol/L | Activity (HepG2 [2]): 2.476 mmol/L | Ratio (HepG2 [3]): 4.304 | OD (HepG2 [4]): 0.591

CN(C)C(=N)NC(=N)N [METFORMIN]
Activity (HepG2 [1]): 2.25 mmol/L | Ratio (HepG2 [3]): 3.923 | OD (HepG2 [4]): 0.574
